{"source": "patent US20160030416A1", "about": "“METHODS OF TREATING B2-BRADYKININ RECEPTOR MEDIATED ANGIOEDEMA” (SHIRE HUMAN GENETIC THERAPIES, INC., priority 2013, published 2016)", "key": {"[1]": {"experiment": "In vitro microsomal stability, dog", "format": "in vitro ADME", "settings": "Dog (Beagle), Male", "description": "In vitro metabolic stability studies were performed to determine hepatic stability in vivo. CFMQ was incubated in liver microsomal preparations from mouse, rat, dog, mini-pig, and humans, as well as an additional study with monkey and human. CFMQ was incubated with human and animal liver microsomes at 0.3 mg/mL at 37° C. for 30 or 60 minutes. Additional reference compounds were incubated as controls. Following incubation, samples were analyzed by HPLC-MS/MS."}, "[2]": {"target": "T1, NK3 (h) (Homo sapiens, UniProt P29371)", "T1 construct": "expressed in transfected cells; host or cells: CHO or HEK 293 (not assigned per receptor)", "T1 sequence (P29371 1-465)": "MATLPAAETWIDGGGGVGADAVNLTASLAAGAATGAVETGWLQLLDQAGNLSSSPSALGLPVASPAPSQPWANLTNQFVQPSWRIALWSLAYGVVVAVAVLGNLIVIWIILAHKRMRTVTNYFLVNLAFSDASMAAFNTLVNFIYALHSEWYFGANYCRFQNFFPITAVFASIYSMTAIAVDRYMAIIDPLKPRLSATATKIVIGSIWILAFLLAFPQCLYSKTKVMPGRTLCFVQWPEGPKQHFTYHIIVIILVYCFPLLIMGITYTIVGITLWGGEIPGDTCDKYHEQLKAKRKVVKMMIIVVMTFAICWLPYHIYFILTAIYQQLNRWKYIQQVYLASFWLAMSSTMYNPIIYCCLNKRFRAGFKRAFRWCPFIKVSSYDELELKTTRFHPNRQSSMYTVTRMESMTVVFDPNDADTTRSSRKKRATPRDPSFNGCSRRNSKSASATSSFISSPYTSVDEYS", "experiment": "Off-target receptor binding: NK3", "description": "(§1) To determine the affinity to the B2-bradykinin receptor, CFMQ was compared to a diverse set of receptors and reference agents in an in vitro assay using cells from rat heart, urinary bladder, cerebral cortex, as well as human recombinant cells (CHO and HEK 293) and other cell lines. Each assay included a ligand at a specific concentration (concentration ranging from 0.007-10 nM), in addition to a non-specific ligand (concentration ranging from […]) for incubation periods ranging from 15 minutes to 6 hours at 4°-37° C. The specific binding to the receptors was defined as the difference between the total binding and the nonspecific binding, determined in the presence of an excess of unlabeled CFMQ. The concentration causing a half-maximal inhibition of control specific binding (IC50 values) and inhibition constants (Ki) were determined, and each reference compound was within the accepted limits of the historic average (±0.5 log units)."}, "[3]": {"system": "plasma extravasation", "experiment": "Plasma extravasation (Evans blue in bladder), oral gavage, wild-type male mice", "format": "in vivo, wild-type (WT) C57/BL6 male mice", "settings": "for inhibition of plasma extravasation at % (compared to vehicle controls): after 64 minutes", "excerpt": "In vivo experiments in both wild-type (WT) C57BL/6J mice and C1-inhibited knock out (C1 INH KO) mice measured pharmacodynamic efficacy by the ability of CFMQ to block plasma extravasation, which is causative to edema, the most important symptom requiring treatment in HAE subjects. This plasma extravasation model has been used extensively in the literature to investigate the efficacy of bradykinin receptor antagonists. (Han et al., “Increased vascular permeability in C1 inhibitor-deficient mice mediated by the bradykinin type 2 receptor,” J Clin Invest, 2002 April; 109(8): 1057-1063.)\nThe uptake and effective blocking of plasma extravasation of CFMQ (HGT3711) was examined following oral administration in wild-type (WT) C57/BL6 male mice (n=4/dose group). Mice received a single oral gavage of CFMQ (HGT3711) (10 μL/g) at 3.0 or 10 mg/kg. Blood samples were taken at 20 and 60 minutes post-dose. Following oral administration CFMQ (HGT3711) administration and prior to the terminal time point, mice received an IV injection of Evans blue (EB) dye (30 mg/kg) and were sacrificed. Similar to the IV study, EB concentration in the formamide extract was determined spectrophotometrically (μg EB per milligram of tissue) and efficacy was determined by inhibiting the accumulation of EB in the bladder."}, "[4]": {"target": "T2, A3 (h) (Homo sapiens, UniProt P0DMS8)", "T2 construct": "expressed in transfected cells; host or cells: CHO or HEK 293 (not assigned per receptor)", "T2 sequence (P0DMS8 1-318)": "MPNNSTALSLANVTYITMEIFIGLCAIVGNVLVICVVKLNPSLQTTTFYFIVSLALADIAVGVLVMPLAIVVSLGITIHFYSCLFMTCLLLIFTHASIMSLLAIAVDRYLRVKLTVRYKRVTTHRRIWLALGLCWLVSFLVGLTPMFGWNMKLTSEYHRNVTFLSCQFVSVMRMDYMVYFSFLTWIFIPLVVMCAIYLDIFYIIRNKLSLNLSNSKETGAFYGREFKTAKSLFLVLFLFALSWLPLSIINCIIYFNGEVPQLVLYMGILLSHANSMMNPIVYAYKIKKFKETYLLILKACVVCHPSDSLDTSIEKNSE", "experiment": "Off-target receptor binding: A3", "description": "as §1"}, "[5]": {"experiment": "Plasma kinetics, intravenous, Sprague-Dawley rats", "format": "in vivo, female Sprague-Dawley rats", "description": "CFMQ (HGT3711) was administered to fasted female Sprague-Dawley rats by a single intravenous injection at 1.0 mg/kg, formulated in 100% PEG200 (Table 2.6.5.X, Study 10SHIRUSP11). Blood samples were taken via a jugular vein cannula prior to administration and at 0.083 (5 min), 0.25 (15 min), 0.50 (30 min), 1, 2, 4 and 8 hours post dose. Plasma concentrations of CFMQ (HGT3711) were determined by LC-MS/MS and concentrations below the limit of quantitation (1 ng/mL) were assigned a value of zero for pharmacokinetic analysis. Nominal dosing concentrations were used in all calculations."}, "[6]": {"settings": "female, Sprague-Dawley, rat, plasma, IV 1 mg/kg"}}, "data": [{"smiles": "Cc1cc(Cl)c(COc2cccc3c(-n4cc(F)cn4)cc(C)nc23)c(Cn2cccc(C#N)c2=O)n1", "note": "[CFMQ, 1-((4-Chloro-3-(((4-(4-fluoro-1H-pyrazol-1-yl)-2-methylquinolin-8-yl)oxy)methyl)-6-methylpyridin-2-yl)methyl)-2-oxo-1,2-dihydropyridine-3-carbonitrile]", "values": [{"measurement": "% Remaining [30 minutes]", "setting": "[1]; 30 minutes", "result": 66, "unit": "%"}, {"measurement": "% Remaining [60 minutes]", "setting": "[1]; 60 minutes", "result": 45, "unit": "%"}, {"measurement": "IC50", "setting": "[2]", "result": 1.1, "unit": "µM"}, {"measurement": "Ki", "setting": "[2]", "result": 2.7, "unit": "µM"}, {"measurement": "nH", "setting": "[2]", "result": 1.1}, {"measurement": "inhibition at 10 µM", "setting": "[2]; CFMQ at 10 μM", "result": 53, "unit": "%"}, {"measurement": "inhibition of plasma extravasation to % (compared to vehicle controls)", "setting": "[3]; oral 3.0 mg/kg, 4 minutes post dose", "result": 56, "unit": "%"}, {"measurement": "inhibition of plasma extravasation to % (compared to vehicle controls)", "setting": "[3]; oral 3.0 mg/kg, 24 minutes post dose", "result": 58, "unit": "%"}, {"measurement": "inhibition of plasma extravasation at % (compared to vehicle controls)", "setting": "[3]; oral 3.0 mg/kg", "result": 72, "unit": "%"}, {"measurement": "inhibition of plasma extravasation to % (compared to vehicle controls)", "setting": "[3]; oral 10 mg/kg, 4 minutes post dose", "result": 14, "unit": "%"}, {"measurement": "inhibition of plasma extravasation to % (compared to vehicle controls)", "setting": "[3]; oral 10 mg/kg, 24 minutes post dose", "result": 21, "unit": "%"}, {"measurement": "inhibition of plasma extravasation at % (compared to vehicle controls)", "setting": "[3]; oral 10 mg/kg", "result": 75, "unit": "%"}, {"measurement": "IC50", "setting": "[4]", "result": 7.6, "unit": "µM"}, {"measurement": "Ki", "setting": "[4]", "result": 4.5, "unit": "µM"}, {"measurement": "nH", "setting": "[4]", "result": 1.4}, {"measurement": "inhibition at 10 µM", "setting": "[4]; CFMQ at 10 μM", "result": 53, "unit": "%"}, {"measurement": "clearance as % of liver blood flow in rat (3.3 L/hr/kg)", "setting": "[5]; IV 1 mg/kg", "result": "approximately 30%"}, {"measurement": "adverse reactions", "setting": "[5]; IV 1.0 mg/kg, rats", "result": "no adverse reactions observed"}, {"measurement": "AUC(0-inf)", "setting": "[5]; [6]", "result": 1410, "unit": "ng·h/mL"}, {"measurement": "AUC(0-t)", "setting": "[5]; [6]", "result": 1150, "unit": "ng·h/mL"}, {"measurement": "C0", "setting": "[5]; [6]", "result": 747, "unit": "ng/mL"}, {"measurement": "Tmax", "setting": "[5]; [6]", "result": 0, "unit": "h"}, {"measurement": "clearance", "setting": "[5]; [6]", "result": 15.8, "unit": "mL/min/kg"}, {"measurement": "half-life", "setting": "[5]; [6]", "result": "2.86 ± 2.54", "unit": "h"}, {"measurement": "concentration at 0 hr", "setting": "[5]; female, Sprague-Dawley, rat, plasma, IV 1 mg/kg, 0 hr, read-out: Average Concentration of HGT3711", "result": 0, "unit": "ng/mL"}, {"measurement": "concentration at 0.083 hr", "setting": "[5]; female, Sprague-Dawley, rat, plasma, IV 1 mg/kg, 0.083 hr, read-out: Average Concentration of HGT3711", "result": 597, "unit": "ng/mL"}, {"measurement": "concentration at 0.25 hr", "setting": "[5]; female, Sprague-Dawley, rat, plasma, IV 1 mg/kg, 0.25 hr, read-out: Average Concentration of HGT3711", "result": 401, "unit": "ng/mL"}, {"measurement": "concentration at 0.5 hr", "setting": "[5]; female, Sprague-Dawley, rat, plasma, IV 1 mg/kg, 0.50 hr, read-out: Average Concentration of HGT3711", "result": 324, "unit": "ng/mL"}, {"measurement": "concentration at 1 hr", "setting": "[5]; female, Sprague-Dawley, rat, plasma, IV 1 mg/kg, 1.0 hr, read-out: Average Concentration of HGT3711", "result": 248, "unit": "ng/mL"}, {"measurement": "concentration at 2 hr", "setting": "[5]; female, Sprague-Dawley, rat, plasma, IV 1 mg/kg, 2.0 hr, read-out: Average Concentration of HGT3711", "result": 160, "unit": "ng/mL"}, {"measurement": "concentration at 4 hr", "setting": "[5]; female, Sprague-Dawley, rat, plasma, IV 1 mg/kg, 4.0 hr, read-out: Average Concentration of HGT3711", "result": 113, "unit": "ng/mL"}, {"measurement": "concentration at 8 hr", "setting": "[5]; female, Sprague-Dawley, rat, plasma, IV 1 mg/kg, 8.0 hr, read-out: Average Concentration of HGT3711", "result": 36.9, "unit": "ng/mL"}, {"measurement": "Vd", "setting": "[5]; female, Sprague-Dawley, rat, plasma, IV 1 mg/kg, read-out: Vss", "result": "2.6 ± 1.1", "unit": "L/kg"}]}]}
